Assays:
[1] = bacteroides thetaiotaomicron, 12 h, 2 µM
Description: The drug is tested on Bacteroides thetaiotaomicron strain: 3731 for biotransformation. The drug concentrations were measured before and after a 12-h incubation by liquid-chromatography-coupled mass spectrometry (LC–MS)

[2] = bacteroides eggerthii, 12 h, 2 µM
Description: The drug is tested on Bacteroides eggerthii strain: DSM20697 for biotransformation. The drug concentrations were measured before and after a 12-h incubation by liquid-chromatography-coupled mass spectrometry (LC–MS)

[3] = The drug is tested on Clostridium sporogenes strain: ATCC15579 for biotransformation. The drug concentrations were measured before and after a 12-h incubation by liquid-chromatography-coupled mass spectrometry (LC–MS); conditions: 2 µM
[4] = The drug is tested on Bacteroides cellulosilyticus strain: DSM14838 for biotransformation. The drug concentrations were measured before and after a 12-h incubation by liquid-chromatography-coupled mass spectrometry (LC–MS); conditions: 2 µM
[5] = The drug is tested on Enterobacter cancerogenus strain: ATCC35316 for biotransformation. The drug concentrations were measured before and after a 12-h incubation by liquid-chromatography-coupled mass spectrometry (LC–MS); conditions: 2 µM
[6] = The drug is tested on Ruminococcus torques strain: ATCC27756 for biotransformation. The drug concentrations were measured before and after a 12-h incubation by liquid-chromatography-coupled mass spectrometry (LC–MS); assay type: ADME; design: dose 2 uM, timepoint 0 vs 12 hours; conditions: 2 µM
[7] = The drug is tested on Collinsella aerofaciens strain: ATCC25986 for biotransformation. The drug concentrations were measured before and after a 12-h incubation by liquid-chromatography-coupled mass spectrometry (LC–MS); conditions: 2 µM
[8] = limosilactobacillus reuteri cf48-3a, 12 h, 2 µM
Description: The drug is tested on Lactobacillus reuteri CF48-3A strain: BEI HM-102 for biotransformation. The drug concentrations were measured before and after a 12-h incubation by liquid-chromatography-coupled mass spectrometry (LC–MS)

[9] = bacteroides fragilis, 12 h, 2 µM
Description: The drug is tested on Bacteroides fragilis strain: 3397 (T10) for biotransformation. The drug concentrations were measured before and after a 12-h incubation by liquid-chromatography-coupled mass spectrometry (LC–MS)

[10] = The drug is tested on Bifidobacterium longum subsp. Infantis strain: CCUG52486 for biotransformation. The drug concentrations were measured before and after a 12-h incubation by liquid-chromatography-coupled mass spectrometry (LC–MS); conditions: 2 µM
[11] = The drug is tested on Bacteroides sp. WH2 strain: WH2 for biotransformation. The drug concentrations were measured before and after a 12-h incubation by liquid-chromatography-coupled mass spectrometry (LC–MS); conditions: bacteroides sp. wh2, 12 h, 2 µM
[12] = The drug is tested on Parabacteroides merdae strain: ATCC43184 for biotransformation. The drug concentrations were measured before and after a 12-h incubation by liquid-chromatography-coupled mass spectrometry (LC–MS); conditions: 2 µM
[13] = The drug is tested on Bacteroides pectinophilus strain: ATCC43243 for biotransformation. The drug concentrations were measured before and after a 12-h incubation by liquid-chromatography-coupled mass spectrometry (LC–MS); conditions: 2 µM
[14] = bacteroides thetaiotaomicron, 12 h, 2 µM; remark: listed apart in the source
Description: The drug is tested on Bacteroides thetaiotaomicron strain: VPI-5482 for biotransformation. The drug concentrations were measured before and after a 12-h incubation by liquid-chromatography-coupled mass spectrometry (LC–MS)

[15] = enterocloster bolteae, 12 h, 2 µM
Description: The drug is tested on Clostridium bolteae strain: ATCCBAA-613 for biotransformation. The drug concentrations were measured before and after a 12-h incubation by liquid-chromatography-coupled mass spectrometry (LC–MS)

[16] = The drug is tested on Escherichia coli strain: BW25113 for biotransformation. The drug concentrations were measured before and after a 12-h incubation by liquid-chromatography-coupled mass spectrometry (LC–MS); conditions: 2 µM
[17] = The drug is tested on Bacteroides fragilis strain: HMW610 for biotransformation. The drug concentrations were measured before and after a 12-h incubation by liquid-chromatography-coupled mass spectrometry (LC–MS); conditions: 2 µM
[18] = The drug is tested on Eubacterium ventriosum strain: ATCC27560 for biotransformation. The drug concentrations were measured before and after a 12-h incubation by liquid-chromatography-coupled mass spectrometry (LC–MS); assay type: ADME; design: dose 2 uM, timepoint 0 vs 12 hours; conditions: 2 µM
[19] = The drug is tested on Bacteroides ovatus strain: ATCC8483 for biotransformation. The drug concentrations were measured before and after a 12-h incubation by liquid-chromatography-coupled mass spectrometry (LC–MS); conditions: 2 µM
[20] = The drug is tested on Bacteroides vulgatus strain: ATCC8482 for biotransformation. The drug concentrations were measured before and after a 12-h incubation by liquid-chromatography-coupled mass spectrometry (LC–MS); conditions: phocaeicola vulgatus, 2 µM

SMILES | Bacterial Biotransformation [1] | Bacterial Biotransformation [2] | Bacterial Biotransformation [3] | Bacterial Biotransformation [4] | Bacterial Biotransformation [5] | Bacterial Biotransformation [6] | Bacterial Biotransformation [7] | Bacterial Biotransformation [8] | Bacterial Biotransformation [9] | Bacterial Biotransformation [10] | Bacterial Biotransformation [11] | Bacterial Biotransformation [12] | Bacterial Biotransformation [13] | Bacterial Biotransformation [14] | Bacterial Biotransformation [15] | Bacterial Biotransformation [16] | Bacterial Biotransformation [17] | Bacterial Biotransformation [18] | Bacterial Biotransformation [19] | Bacterial Biotransformation [20]
CC(=O)O[C@H]1C(=O)[C@@]2(C)[C@H]([C@H](OC(=O)c3ccccc3)[C@]3(O)C[C@H](OC(=O)[C@H](O)[C@@H](NC(=O)c4ccccc4)c4ccccc4)C(C)=C1C3(C)C)[C@]1(OC(C)=O)CO[C@@H]1C[C@@H]2O [PACLITAXEL] | Compound NOT metabolized | Compound NOT metabolized | Compound NOT metabolized | Compound NOT metabolized | Compound NOT metabolized | Compound NOT metabolized | Compound NOT metabolized | Compound NOT metabolized | Compound NOT metabolized | Compound NOT metabolized | Compound NOT metabolized | Compound NOT metabolized | Compound NOT metabolized | Compound NOT metabolized | Compound NOT metabolized | Compound NOT metabolized | – | – | – | –
COc1c2occc2cc2ccc(=O)oc12 [METHOXSALEN] | – | Compound metabolized | Compound metabolized | Compound metabolized | Compound NOT metabolized | Compound NOT metabolized | Compound NOT metabolized | Compound NOT metabolized | – | – | – | – | Compound NOT metabolized | Compound NOT metabolized | Compound metabolized | Compound NOT metabolized | Compound metabolized | Compound NOT metabolized | – | –
OC(c1cc(C(F)(F)F)nc2c(C(F)(F)F)cccc12)C1CCCCN1 (configuration not stated) [MEFLOQUINE] | Compound NOT metabolized | Compound NOT metabolized | – | Compound NOT metabolized | Compound NOT metabolized | – | Compound NOT metabolized | Compound NOT metabolized | Compound NOT metabolized | Compound NOT metabolized | Compound NOT metabolized | Compound NOT metabolized | Compound NOT metabolized | Compound NOT metabolized | Compound NOT metabolized | Compound metabolized | Compound NOT metabolized | Compound NOT metabolized | Compound NOT metabolized | Compound NOT metabolized
CC(C)(C)NCC(O)COc1cccc2c1CC(O)C(O)C2 (configuration not stated) [NADOLOL] | – | Compound NOT metabolized | Compound NOT metabolized | Compound NOT metabolized | Compound NOT metabolized | Compound NOT metabolized | Compound NOT metabolized | Compound NOT metabolized | Compound NOT metabolized | Compound NOT metabolized | Compound NOT metabolized | Compound NOT metabolized | Compound NOT metabolized | Compound NOT metabolized | Compound NOT metabolized | – | Compound NOT metabolized | Compound NOT metabolized | Compound NOT metabolized | Compound NOT metabolized
CCCCC(=O)O[C@]1(C(=O)CO)[C@@H](C)C[C@H]2[C@@H]3CCC4=CC(=O)C=C[C@]4(C)[C@@]3(F)[C@@H](O)C[C@@]21C [BETAMETHASONE VALERATE] | Compound metabolized | Compound metabolized | – | Compound NOT metabolized | Compound NOT metabolized | – | Compound NOT metabolized | Compound metabolized | – | – | Compound NOT metabolized | – | Compound NOT metabolized | Compound NOT metabolized | Compound metabolized | Compound metabolized | Compound metabolized | – | Compound NOT metabolized | Compound metabolized
O=C(NC(Cc1cc(=O)[nH]c2ccccc12)C(=O)O)c1ccc(Cl)cc1 (configuration not stated) [REBAMIPIDE] | Compound NOT metabolized | Compound NOT metabolized | – | Compound NOT metabolized | Compound NOT metabolized | Compound NOT metabolized | Compound NOT metabolized | – | Compound NOT metabolized | Compound NOT metabolized | – | Compound NOT metabolized | Compound NOT metabolized | Compound NOT metabolized | Compound NOT metabolized | – | Compound metabolized | – | Compound NOT metabolized | –
COc1ccc(/C=C/C(=O)Nc2ccccc2C(=O)O)cc1OC | Compound NOT metabolized | Compound NOT metabolized | Compound NOT metabolized | Compound NOT metabolized | Compound NOT metabolized | Compound NOT metabolized | Compound NOT metabolized | Compound NOT metabolized | Compound NOT metabolized | Compound NOT metabolized | Compound metabolized | Compound NOT metabolized | Compound NOT metabolized | Compound NOT metabolized | Compound NOT metabolized | Compound NOT metabolized | Compound metabolized | – | Compound metabolized | –
CCc1nc(N)nc(N)c1-c1ccc(Cl)cc1 [PYRIMETHAMINE] | Compound NOT metabolized | Compound NOT metabolized | Compound NOT metabolized | Compound NOT metabolized | Compound NOT metabolized | Compound NOT metabolized | Compound NOT metabolized | Compound NOT metabolized | Compound NOT metabolized | Compound NOT metabolized | Compound NOT metabolized | Compound NOT metabolized | Compound NOT metabolized | Compound NOT metabolized | Compound NOT metabolized | – | Compound NOT metabolized | Compound NOT metabolized | Compound NOT metabolized | Compound NOT metabolized
O=C(O[C@H]1C[C@H]2CC[C@@H](C1)[N+]21CCCC1)C(O)(c1ccccc1)c1ccccc1.[Cl-] [TROSPIUM CHLORIDE] | Compound NOT metabolized | Compound NOT metabolized | Compound NOT metabolized | Compound NOT metabolized | Compound NOT metabolized | Compound NOT metabolized | Compound NOT metabolized | Compound NOT metabolized | Compound NOT metabolized | Compound NOT metabolized | Compound NOT metabolized | Compound NOT metabolized | – | Compound NOT metabolized | Compound NOT metabolized | Compound NOT metabolized | – | Compound NOT metabolized | Compound NOT metabolized | –

From ChEMBL document CHEMBL5303573, “Mapping human microbiome drug metabolism by gut bacteria and their genes” (Nature, 2019)
